Data from patent US20260250318A1, “COMPOSITIONS AND METHODS FOR CROSSING THE BLOOD BRAIN BARRIER” (VOYAGER THERAPEUTICS, INC., priority 2022, published 2026).

Legend:
Details in all cases: synthetic library passage 3, intravenous, relative to wild-type AAV9
brain [1] = test: NGS fold enrichment of synthetic library (passage 3) in BALB/c mice, first cross-species screen; assay type: in vivo
Summary of the method: (§1)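 Passage-3 synthetic capsid library given intravenously […] to NHPs (2-4 years) and BALB/c or C57Bl/6 mice (n=3, 6-8 weeks). After e.g. 28 days, tissue RNA was RT-PCR amplified and NGS-sequenced; values are fold enrichment of each variant relative to wild-type AAV9.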

[2] = system: brain, spinal cord, and DRG of the NHPs; test: NGS fold enrichment of synthetic library (passage 3) in NHPs, first cross-species screen; assay type: in vivo, cynomolgus macaques (Macaca fascicularis)
Summary of the method: as §1

brain [3] = test: NGS fold enrichment of synthetic library (passage 3) in C57Bl/6 mice, first cross-species screen; assay type: in vivo
Summary of the method: as §1

[4] = RNA from brain of BALB/c mice, NGS
[5] = RNA from spinal cord of NHPs, NGS
[6] = RNA from brain of C57Bl/6 mice, NGS

| Sequence | Fold enrichment over AAV9 in the brain of Mice (BALB/c) (brain [1]; [4]) | Fold enrichment over AAV9 in the brain of NHPs ([2]; RNA from brain of NHPs, NGS) | Fold enrichment over AAV9 in the spinal cord of NHPs [2, 5] | Fold enrichment over AAV9 in the brain of Mice (C57Bl/6) (brain [3]; [6]) | Fold enrichment over AAV9 in the brain of Mice (BALB/c) (brain [1]; RNA NGS, brain of BALB/c mice) | Fold enrichment over AAV9 in the brain of NHPs ([2]; RNA NGS, brain of NHPs) | Fold enrichment over AAV9 in the spinal cord of NHPs ([2]; RNA NGS, spinal cord of NHPs) | Fold enrichment over AAV9 in the brain of Mice (C57Bl/6) (brain [3]; RNA NGS, brain of C57Bl/6 mice) |
| --- | --- | --- | --- | --- | --- | --- | --- | --- |
| GSGQREPKASNQQT | 0.520 fold | 1.214 fold | 2.793 fold | 0.399 fold |  |  |  |  |
| GSGQRGSLTENQQT | 0.567 fold | 1.337 fold | 2.482 fold | 0.300 fold |  |  |  |  |
| GSGQRLSQGVNHQT |  |  |  |  | 1.141 fold | 1.108 fold | 3.394 fold | 0.931 fold |
| GSGQRMADIGNQQT | 0.427 fold | 1.233 fold | 2.539 fold | 0.352 fold |  |  |  |  |
| GSGQRNPLLLNQQT |  |  |  |  | 0.740 fold | 1.693 fold | 0.144 fold | 0.662 fold |
| GSGQRRELSQNQQT | 0.396 fold | 1.215 fold | 1.791 fold | 0.622 fold |  |  |  |  |
| GSGQRSPVLPNQQT |  |  |  |  | 0.526 fold | 2.369 fold | 6.230 fold | 0.434 fold |
| GSGQSFQMHTNQQT |  |  |  |  | 0.325 fold | 1.504 fold | 9.770 fold | 0.503 fold |
| GSGQSHLHTGNQQT |  |  |  |  | 0.295 fold | 1.096 fold | 2.584 fold | 0.721 fold |
| GSGQSHMATLNQQT |  |  |  |  | 0.504 fold | 2.657 fold | 0.724 fold | 1.173 fold |
| GSGQSHRDVLNQQT |  |  |  |  | 0.280 fold | 1.872 fold | 15.082 fold | 0.138 fold |
| GSGQSHRQPENQQT |  |  |  |  | 0.159 fold | 1.529 fold | 2.153 fold | 0.209 fold |
| GSGQSHRSELNQQT |  |  |  |  | 0.256 fold | 1.585 fold | 11.974 fold | 0.668 fold |
| GSGQSHSLATNQQT |  |  |  |  | 0.343 fold | 1.745 fold | 2.711 fold | 1.021 fold |
| GSGQSHSLETNQQT | 0.363 fold | 1.188 fold | 1.319 fold | 0.520 fold |  |  |  |  |
| GSGQSMTLHLNQQT |  |  |  |  | 0.248 fold | 1.827 fold | 0.991 fold | 0.721 fold |
| GSGQSREISLNQQT |  |  |  |  | 0.282 fold | 1.088 fold | 6.954 fold | 0.594 fold |
| GSGQSSGRLINKQT |  |  |  |  | 0.277 fold | 2.055 fold | 28.135 fold | 0.543 fold |
| GSGQSSYGSGNQQT | 0.456 fold | 1.257 fold | 1.686 fold | 1.161 fold |  |  |  |  |
| GSGQSTLKRINQQT | 1.184 fold | 1.168 fold | 13.442 fold | 0.534 fold |  |  |  |  |
